Assays:
[1] = known triarylmethane dyes; colour change from lower pH to higher pH; cited from earlier work
[2] = Storage stability of concentrates at elevated temperatures; conditions: pH indicator in agricultural concentrate with carbohydrate acids as pH modifying agent

Row | stability of the pH indicator in the presence of carbohydrate acids / carbohydrate acid mixture [2] | SMILES | Range of pH colour transition [1]
1 |  | Cc1c(C2(c3cc(Br)c(O)c(Br)c3C)OS(=O)(=O)c3ccccc32)cc(Br)c(O)c1Br [bromocresol green] | pH 3.8-5.4
2 |  | Cc1cc(C2(c3cc(C)c(O)c(Br)c3)OS(=O)(=O)c3ccccc32)cc(Br)c1O [bromocresol purple] | pH 5.2-6.8
3 |  | O=S1(=O)OC(c2cc(Br)c(O)c(Br)c2)(c2cc(Br)c(O)c(Br)c2)c2ccccc21 [bromophenol blue] | pH 3.0-4.6
4 | low stability | O=S1(=O)OC(c2ccc(O)c(Cl)c2)(c2ccc(O)c(Cl)c2)c2ccccc21 [chlorophenol red] | pH 4.8-6.7

Source: patent US9277747B2, “Agricultural composition comprising pH sensitive agricultural chemicals and organic pH buffer” (NUTRIAG LTD., priority 2010, dated 2016)
